This is an account of results in patent US5776489A, “Controlled release carbonic anhydrase inhibitor containing pharmaceutical compositions from spherical granules in capsule oral dosage unit form” (priority 1992, dated 1998).

SMILES strings stand for the structures. Converted amounts (≈) assume the structure as drawn.

The conditions of data set [1]: cited from earlier work.
The conditions of data set [2]: pH 1.2.

The term solubility denotes the concentration that dissolves in the medium under given conditions. For orientation: aqueous solubility means the dissolved amount per volume that the medium holds. As for `CC(=O)/N=c1/sc(S(N)(=O)=O)nn1C` [methazolamide], the solubility in data set [1] (pH 7.2 phosphate buffer) is 3400 µg/mL (≈ 14.4 mM). Besides, the aqueous solubility in data set [1] (water, 25° C.) was 1500 µg/mL (≈ 6.35 mM). In addition, in data set [2], the “degradation in gastric fluid” value is listed as “degradation” and the “solubility in gastric fluid” value was “poor solubility”.
